Assay results as given in US12209112B2, “Methods of preventing or treating diseases, conditions, or disorders associated with chemotherapy” (The Chinese University of Hong Kong, priority 2022, dated 2025).
Where two headings read alike, the source gives them in different places.

How the values were obtained:
[1] = test system: hESC-CMs; assay: PrestoBlue cell viability analysis of hESC-CMs exposed to doxorubicin; assay type: cell-based, human; settings: for optimal timing of pretreatment prior to doxorubicin: 1, 6, 24, 48, 72 h tested, doxorubicin 1.5 μM for 24 h
Method: Viability of hESC-CMs was assessed using PrestoBlue (Thermo Fisher Scientific, USA). hESC-CMs in suspension were seeded at a density of 15,000 cells per well on 96-well flat-bottom microtiter plates and cultured at 37° C. in a humidified 5% CO2 atmosphere. The B27+/RPMI-1640 media with Y27632 were changed to B27+/RPMI−1640 media within 24 hours. Cells were then incubated in B27+/RPMI−1640 without supplement for at least 72 hours. PrestoBlue was diluted in a ratio of 1:10 in B27+/RPMI−1640 media and incubated with the cells at 37° C. for 30 minutes. After incubation, fluorescence reading was performed at excitation and emission wavelengths of 530 nm and 590 nm, respectively, using the Synergy HTX Multi-Mode microplate reader (Agilent Technologies, Inc., USA).
Six logarithmic concentrations of GDF15 were initially used to identify the optimal dose for cytoprotection: 0.1 ng/ml, 1 ng/ml, 10 ng/ml, 100 ng/ml, 1,000 ng/ml (1 ug/ml), and 10,000 ng/ml (10 ug/ml). Further refinement of dose response was subsequently achieved using concentrations at 100 ng/ml, 200 ng/ml, and 300 ng/ml. The optimal time point (see below) of 24 hours was selected. Doxorubicin at 1.5 μM was used to induce cytotoxicity.
hESC-CMs were pretreated with GDF15 for 1 hour, 6 hours, 24 hours, 48 hours, or 72 hours (“pretreatment”), followed by exposure to 1.5 μM doxorubicin alone for a further 24 hours. A second set of experiments involved pretreatment of hESC-CMs for 1 hour, 6 hours, 24 hours, 48 hours, or 72 hours, followed by removal of the media containing GDF15, and coincubation of hESC-CMs with both GDF15 and doxorubicin for another 24h (“pre/co-treatment”). The efficacy of GDF15 in protecting cardiomyocytes was assessed by cell viability analysis using PrestoBlue.

[2] = test system: C57BL/6J male mice; assay: Noninvasive blood pressure in mouse doxorubicin cardiotoxicity model; assay type: in vivo; settings: for Day 28 DBP / Day 28 SBP: after doxorubicin 5 mg/kg intraperitoneal once weekly for four weeks (Dox + groups); for Day 28 DBP / Day 28 SBP / Day 0 DBP / Day 0 SBP: n = 4 per group; for Day 0 DBP / Day 0 SBP: before doxorubicin administration
Text: Recombinant human GDF15/MIC-1 protein (CHO-derived) was purchased from PeproTech Inc. (Cranbury, USA) and described in Example 1. […] PubChem identifier number 71384) were purchased from Abcam (Cambridge, UK). For in vitro studies, solid lyophilized powder of these two drugs were solubilized at the recommended concentrations in sterile water, and separate aliquots were made and frozen until thawing prior to addition to cell cultures. […] The recommended dose ratio of dexrazoxane to doxorubicin was 10 to 1. In the following examples, 5 mg/kg of doxorubicin was used which correspond to 50 mg/kg of dexrazoxane. The FDA recommends that dexrazoxane be injected within 0.5 hour prior to doxorubicin infusion in individuals. This was followed in the same manner when applying to the test animals. Ten- to twelve-week old C57BL/6J male mice were purchased from the Laboratory Animal Services Centre of CUHK. They were maintained in specific pathogen-free facility of the CUHK Laboratory Animal Services Centre Research Unit at Prince of Wales Hospital with free access to food and water and maintained in a light/night cycle of 12 hours/12 hours. All mice were fed a standard diet. Blood pressure of animals was measured using the noninvasive CODA® High Throughput System (Torrington, USA) in accordance with the manufacturer's instructions. Measurement platform was prewarmed and maintained at 33-35° C. O-cuffs and VPR-cuffs were used as instructed. Blood pressure of each mouse was measured for at least three cycles. Mice were released and returned to their cages immediately after measurement. Blood pressure was measured twice, once at the beginning of the experiment and once before sacrifice. To induce cardiotoxicity in the mouse, four weekly intraperitoneal injections of doxorubicin at 5 mg/kg were administered. After one dose of doxorubicin at 5-6 mg/kg in a mouse, the level of exposure has been estimated to be similar to that of a human individual being given a standard dose of doxorubicin at approximately 60 mg/m^2.

[3] = test system: C57BL/6J male mice; assay type: in vivo, mouse
Method: Recombinant human GDF15/MIC-1 protein (CHO-derived) was purchased from PeproTech Inc. (Cranbury, USA) and described in Example 1. […] For in vitro studies, solid lyophilized powder of these two drugs were solubilized at the recommended concentrations in sterile water, and separate aliquots were made and frozen until thawing prior to addition to cell cultures. For in vivo studies, all agents were dissolved in […] normal saline according to the required concentrations (doxorubicin, 5 mg/kg; GDF15, 0.5 mg/kg; dexrazoxane, […]), and the final volume of each intraperitoneal injection was 100 μl. The recommended dose ratio of dexrazoxane to doxorubicin was 10 to 1. In the following examples, 5 mg/kg of doxorubicin was used which correspond to 50 mg/kg of dexrazoxane. The FDA recommends that dexrazoxane be injected within 0.5 hour prior to doxorubicin infusion in individuals. This was followed in the same manner when applying to the test animals.
To induce cardiotoxicity in the mouse, four weekly intraperitoneal injections of doxorubicin at 5 mg/kg were administered. After one dose of doxorubicin at 5-6 mg/kg in a mouse, the level of exposure has been estimated to be similar to that of a human individual being given a standard dose of doxorubicin at approximately 60 mg/m^2. Previous studies have shown that mice injected with doxorubicin once a week at 5 mg/kg for four weeks developed cardiotoxicity, as evidenced by decreased ventricular ejection fraction, cardiomyocyte apoptosis, histopathological changes consistent with doxorubicin-induced myocardial damage, and increased mortality rate, compared with the control group.
The hearts of mice were collected after sacrifice and fixed in 4% paraformaldehyde overnight, followed by paraffin embedding. Afterwards the hearts were cut into 4 μm thick slices. Sections were deparaffinized and rehydrated using sequential immersion in 100% alcohol, 95% alcohol and 70% alcohol for 15 minutes each. […]

[4] = cancer survivors exposed to >250 mg/m2 doxorubicin vs. non-exposed; cited from earlier work

Row | Compound | cytoprotective effects after priming, pre/co-treatment ([1]; hESC-CMs primed with GDF15 for 24 hours, then coincubation with GDF15 and doxorubicin 24 h) | optimal timing of pretreatment prior to doxorubicin ([1]; hESC-CMs) | optimal timing of pretreatment prior to doxorubicin ([1]; hESC-CMs, listed as recombinant GDF15) | cell viability (positive PrestoBlue staining) ([1]; hESC-CMs, GDF15 pretreatment for 24 hours before doxorubicin 1.5 μM) | cell viability compared with dexrazoxane ([1]; hESC-CMs, pretreatment in the presence of Dox) | systolic and diastolic blood pressure ([2]; GDF15 5 mg/kg intraperitoneal before doxorubicin, compared with doxorubicin only) | Day 28 DBP [2] | Day 28 SBP [2] | Day 0 DBP [2] | Day 0 SBP [2] | myocardial histopathology (hematoxylin and eosin) ([3]; mice, pretreatment before doxorubicin) | myocardial histopathology (hematoxylin and eosin) ([3]; mouse, in vivo) | hazard ratio for developing heart failure [4]
1 | GDF15: commercially available recombinant human GDF-15 protein (PeproTech 120-28C), CHO cell-derived, SEQ ID NO: 1 | cytoprotective effects persisted | 24 h | approximately 24 hours | increased cell viability | slightly higher percentage of cell viability | significantly lowered | 88 ± 5 mmHg | 121 ± 5 mmHg | 83 ± 17 mmHg | 117 ± 12 mmHg | similarly improved |  | 
2 | COc1cccc2c1C(=O)c1c(O)c3c(c(O)c1C2=O)C[C@@](O)(C(=O)CO)C[C@@H]3OC1C[C@H](N)[C@H](O)[C@H](C)O1.Cl (stereo partly drawn) [Dox, (8S,10S)-10-[(3-Amino-2,3,6-trideoxy-L-lyxohexopyranosyl)oxy]-7,8,9,10-tetrahydro-6,8,11-trihydroxy-8-(hydroxyacetyl)-1-methoxynaphthacene-5,12-dione hydrochloride, reference compound] |  |  |  |  |  |  | 119 ± 7 mmHg | 146 ± 7 mmHg | 87 ± 15 mmHg | 116 ± 13 mmHg |  | myocardial structural disarray, and microfibrillar disruption and disorganization | 8.6
